Reference: the NIST ThermoML archive (doi:10.1016/j.jct.2010.12.021)

Experiment: molar heat capacity at constant pressure
Details: 101.33 kPa, Small sample (50 mg) DSC

CCCCCC[n+]1cccc2ccccc21.O=S(=O)([N-]S(=O)(=O)C(F)(F)F)C(F)(F)F [1-hexylquinolinium bis(trifluoromethylsulfonyl)amide]
Details	molar heat capacity at constant pressure [J/K/mol]
283.12 K, Crystal	420.81
283.72 K, Crystal	421.99
284.32 K, Crystal	423.19
284.92 K, Crystal	424.39
285.52 K, Crystal	425.58
286.12 K, Crystal	426.78
286.72 K, Crystal	427.94
287.32 K, Crystal	429.07
287.92 K, Crystal	430.21
288.52 K, Crystal	431.37
289.12 K, Crystal	432.53
289.72 K, Crystal	433.71
290.32 K, Crystal	434.96
290.92 K, Crystal	436.29
291.52 K, Crystal	437.63
292.12 K, Crystal	439.04
292.72 K, Crystal	440.54
293.32 K, Crystal	442.04
293.92 K, Crystal	443.6
294.52 K, Crystal	445.19
295.12 K, Crystal	446.81
295.72 K, Crystal	448.46
296.32 K, Crystal	450.18
296.92 K, Crystal	451.92
297.52 K, Crystal	453.71
298.12 K, Crystal	455.57
298.72 K, Crystal	457.56
299.32 K, Crystal	459.55
299.92 K, Crystal	461.52
300.52 K, Crystal	463.69
301.12 K, Crystal	465.97
301.72 K, Crystal	468.26
302.32 K, Crystal	470.81
302.92 K, Crystal	473.57
303.52 K, Crystal	476.39
304.12 K, Crystal	479.52
304.73 K, Crystal	483.2
305.33 K, Crystal	487.13
305.93 K, Crystal	491.57
306.53 K, Crystal	497.37
307.13 K, Crystal	504.13
307.72 K, Crystal	510.47
308.32 K, Crystal	518.68
308.92 K, Crystal	531.59
309.52 K, Crystal	546.05
310.12 K, Crystal	573.74
310.72 K, Crystal	653.81
311.32 K, Crystal	795.64
311.92 K, Crystal	921.44
312.51 K, Crystal	1266.8
313.09 K, Crystal	2288.5
313.66 K, Crystal	3477.3
314.23 K, Crystal	4856
314.8 K, Crystal	6301.5
315.37 K, Crystal	7631.8
315.94 K, Crystal	9002.3
316.54 K, Crystal	9157.6
317.17 K, Liquid	7971.7
317.8 K, Liquid	6765.5
318.43 K, Liquid	5315.4
319.06 K, Liquid	3937.3
319.69 K, Liquid	2716.7
320.31 K, Liquid	1646.2
320.92 K, Liquid	1124.2
321.52 K, Liquid	783.96
322.12 K, Liquid	605.73
322.72 K, Liquid	578.47
323.33 K, Liquid	579.09
323.93 K, Liquid	579.53
324.53 K, Liquid	579.5
325.13 K, Liquid	579.81
325.73 K, Liquid	580.31
326.33 K, Liquid	580.35
326.93 K, Liquid	580.48
327.53 K, Liquid	580.91
329.93 K, Liquid	582.05
330.53 K, Liquid	582.3
331.13 K, Liquid	582.61
331.73 K, Liquid	582.85
332.33 K, Liquid	583.14
332.93 K, Liquid	583.5
333.53 K, Liquid	583.82
334.13 K, Liquid	584.2
334.73 K, Liquid	584.61
335.33 K, Liquid	585.06
335.93 K, Liquid	585.62
336.53 K, Liquid	586.11
337.13 K, Liquid	586.52
337.73 K, Liquid	586.92
338.33 K, Liquid	587.33
338.93 K, Liquid	587.69
339.53 K, Liquid	587.94
340.13 K, Liquid	588.08
340.73 K, Liquid	588.35
341.33 K, Liquid	588.62
341.93 K, Liquid	588.83
342.54 K, Liquid	589.03
343.13 K, Liquid	589.23
343.73 K, Liquid	589.47
344.33 K, Liquid	589.68
344.93 K, Liquid	589.8
345.53 K, Liquid	589.91
346.13 K, Liquid	590.01
346.73 K, Liquid	590.17
347.33 K, Liquid	590.33
347.93 K, Liquid	590.52
348.53 K, Liquid	590.79
349.13 K, Liquid	591.11
349.73 K, Liquid	591.46
350.33 K, Liquid	591.81
350.93 K, Liquid	592.11
351.53 K, Liquid	592.4
352.13 K, Liquid	592.64
352.73 K, Liquid	592.89
353.33 K, Liquid	593.12
353.93 K, Liquid	593.32
354.53 K, Liquid	593.58
355.13 K, Liquid	593.86
355.73 K, Liquid	594.11
356.33 K, Liquid	594.37
356.93 K, Liquid	594.62
357.53 K, Liquid	594.9
358.13 K, Liquid	595.2
358.73 K, Liquid	595.42
359.33 K, Liquid	595.58
359.93 K, Liquid	595.78
360.53 K, Liquid	595.96
361.13 K, Liquid	596.12
361.73 K, Liquid	596.19
362.33 K, Liquid	596.29
362.93 K, Liquid	596.51
363.53 K, Liquid	596.79
364.13 K, Liquid	597.06
364.73 K, Liquid	597.35
365.33 K, Liquid	597.68
365.93 K, Liquid	598.06
366.53 K, Liquid	598.36
367.13 K, Liquid	598.59
367.73 K, Liquid	598.82
368.33 K, Liquid	599
368.93 K, Liquid	599.12
369.53 K, Liquid	599.24
370.13 K, Liquid	599.38
